Assay results from patent US10112922B2, “Inhibitor of bruton's tyrosine kinase” (Centaurus BioPharma Co., Ltd., priority 2014, dated 2018).
Blank lines part the entries; values can stand above or below the molecule they belong to.

Experiments:
Btk kinase = Btk kinase (Homo sapiens (Human), UniProt Q06187); assay: Btk kinase enzymatic activity assay (HTRF); type: biochemical; conditions: Table 1; read-out: Btk IC50
Description: The half inhibition concentrations (IC50 values) of the compounds disclosed herein on Btk were determined at both enzymatic level and cellular level: the ability of the compounds to inhibit the activity of Btk kinase was determined in an enzymtic activity assay, and the inhibitory effect of the compounds on BCR-induced calcium flux in cells was determined in a cellular function assay.
(§1) The compounds were gradiently diluted 3 folds starting from 1 mM with 100% DMSO (totally 11 concentrations). 4 μL of each sample with a different concentration was added into 96 μL of reaction buffer (50 mM HEPES, pH 7.4, 10 mM MgCl2, 1 mM EGTA, 0.01% Tween-20, 0.005% BAS, 2 mM DTT). […] The mixture was centrifuged to mix well, followed by adding 2.5 μL of a mixture of ATP (final concentration designated as Km) and TK petide (HTRF® KinEASE™-TK, Cisbio) to initiate the reaction (total reaction volume being 10 μL). […] The enzyme activity for each compound was determined at 11 concentrations, and IC50 values were obtained by GraFit Software 6.0 (Erithacus Software).

ITK kinase = ITK kinase (Homo sapiens (Human), UniProt Q08881); assay: ITK kinase enzymatic assay (same HTRF method as BTK); type: biochemical; conditions: Table 1; read-out: Itk IC50
Description: as §1
In vitro activity in inhibiting ITK kinase was determined similar to that in respect of BTK kinase.

OCI-LY-10 cells = assay: Efficacy in subcutaneously xenografted tumor model in mice; type: in vivo, CB-17 SCID mice
Description: SPF grade female CB-17 SCID mice (4-5 week) were used. 0.1 ml of OCI-LY-10 cells suspended in serum-free medium (containing 5×10^6 cells, 30% Matrigel) were injected subcutaneously in both the left and the right flanks of mice. Mice were grouped and numbered when the average tumor volumes were more than 100 mm3, and the body weights and tumor volumes were determined. The mice were randomly grouped according to tumor volumes, and appropriate adjustments were made so that the average body weight in each group is on the same level. Animals were dosed orally on the same day when they were grouped, and body weights and tumor volumes were measured twice a week. Relative tumor growth (T/C) and Tumor growth inhibition (TGI) were the major test indeces.
The equation for calculating the tumor volume is V=0.5×a×b^2, wherein v is the tumor volume, a and b are the length and the width of the tumor, respectively. The relative tumor volume (RTV) was calculated according to the tumor volume with the equation RTV=Vt/V0, wherein V0 was the tumor volume at the time when the animals were grouped, and Vt was the tumor volume at indicated time points. The equation for calculating the relative tumor proliferation rate was T/C (%)=TRTV/CRTV*100%. (TRTV was the RTV of treated group, and CRTV was the RTV of control group).
The equation for calculating the tumor growth inhibition rate was TGI (%)=(1−(tumor volume of the treated group−tumor volume of the treated group at the time when the animals were grouped)/(tumor volume of the control group−tumor volume of the control group at the time when the animals were grouped))*100%.

[1] = Toxicity test in mice (7-day oral administration); type: in vivo, CD-1 (ICR) mice; conditions: for Average body weight of mice / Changes (%) in mice body weight in treated group over control group: 1000 mg/kg oral once a day
Text: Body weights and conditions of mice were monitored every day, during which all mice were not fasting.

[2] = 1000 mg/kg oral once a day for 7 days

Chain of Btk kinase (Q06187 whole entry): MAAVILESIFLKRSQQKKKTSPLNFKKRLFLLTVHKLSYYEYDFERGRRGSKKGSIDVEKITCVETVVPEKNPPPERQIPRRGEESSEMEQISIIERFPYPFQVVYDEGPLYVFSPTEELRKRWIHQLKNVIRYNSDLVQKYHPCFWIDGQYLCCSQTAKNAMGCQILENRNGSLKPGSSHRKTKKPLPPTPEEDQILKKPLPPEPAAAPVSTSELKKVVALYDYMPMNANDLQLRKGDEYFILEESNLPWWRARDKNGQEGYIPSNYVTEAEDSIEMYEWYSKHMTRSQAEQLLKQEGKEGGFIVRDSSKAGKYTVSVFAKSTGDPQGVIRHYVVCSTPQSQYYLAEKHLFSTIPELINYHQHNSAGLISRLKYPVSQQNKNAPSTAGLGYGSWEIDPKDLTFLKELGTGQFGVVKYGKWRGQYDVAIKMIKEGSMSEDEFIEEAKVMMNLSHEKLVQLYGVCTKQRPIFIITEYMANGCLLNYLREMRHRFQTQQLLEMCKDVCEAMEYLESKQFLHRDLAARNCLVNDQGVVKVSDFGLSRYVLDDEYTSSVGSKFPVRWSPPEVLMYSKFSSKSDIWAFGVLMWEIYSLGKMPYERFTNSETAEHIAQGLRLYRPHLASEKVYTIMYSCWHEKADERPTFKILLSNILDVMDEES
Chain of ITK kinase (Q08881 whole entry): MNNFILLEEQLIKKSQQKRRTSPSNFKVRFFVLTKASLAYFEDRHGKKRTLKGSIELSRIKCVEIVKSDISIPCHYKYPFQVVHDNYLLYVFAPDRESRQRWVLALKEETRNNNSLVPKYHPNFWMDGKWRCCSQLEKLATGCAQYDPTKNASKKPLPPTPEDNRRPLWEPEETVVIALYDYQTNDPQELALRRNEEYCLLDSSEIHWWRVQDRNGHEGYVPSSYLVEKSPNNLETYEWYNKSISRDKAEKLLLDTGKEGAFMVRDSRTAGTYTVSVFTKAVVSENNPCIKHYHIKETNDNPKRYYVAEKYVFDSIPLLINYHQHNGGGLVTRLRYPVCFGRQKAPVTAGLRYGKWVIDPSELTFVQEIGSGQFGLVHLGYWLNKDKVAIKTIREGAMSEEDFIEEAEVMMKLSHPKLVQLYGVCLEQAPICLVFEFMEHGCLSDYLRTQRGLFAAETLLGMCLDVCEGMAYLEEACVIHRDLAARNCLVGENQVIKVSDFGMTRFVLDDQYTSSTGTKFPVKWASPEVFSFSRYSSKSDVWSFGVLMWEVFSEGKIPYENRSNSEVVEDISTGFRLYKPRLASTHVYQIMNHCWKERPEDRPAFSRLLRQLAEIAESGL

Structure (SMILES): C=CS(=O)(=O)N1CCC[C@@H](n2nc(-c3ccc(Oc4ccccc4)cc3)c(C(N)=O)c2N)C1 [Example 1, (R)-5-amino-3-(4-phenoxyphenyl)-1-(1-(vinylsulfonyl)piperidin-3-yl)-1H-pyrazole-4-carboxamide]
IC50 (Btk kinase): < 100 nM
IC50 (ITK kinase): < 100 nM

Structure (SMILES): CC(C)/C=C/C(=O)N1CC[C@@H](n2nc(-c3ccc(Oc4ccccc4)cc3)c(C(N)=O)c2N)C1 [Example 8, (R,E)-5-amino-1-(1-(4-methylpent-2-enoyl)pyrrolidin-3-yl)-3-(4-phenoxyphenyl)-1H-pyrazole-4-carboxamide]
IC50 (Btk kinase): < 100 nM
IC50 (ITK kinase): > 1000 nM

Structure (SMILES): CS(=O)(=O)NC/C=C/C(=O)N1CC[C@@H](n2nc(-c3ccc(Oc4ccccc4)cc3)c(C(N)=O)c2N)C1 [Example 14, (R,E)-5-amino-1-(1-(4-(methylsulfonamido)but-2-enoyl)pyrrolidin-3-yl)-3-(4-phenoxyphenyl)-1H-pyrazole-4-carboxamide]
IC50 (Btk kinase): < 100 nM
IC50 (ITK kinase): > 1000 nM

Structure (SMILES): CC#CC(=O)N1CC[C@@H](n2nc(-c3ccc(Oc4ccccc4)cc3)c(C(N)=O)c2N)C1 [Example 16, (R)-5-amino-1-(1-(but-2-ynoyl)pyrrolidin-3-yl)-3-(4-phenoxyphenyl)-1H-pyrazole-4-carboxamide]
IC50 (Btk kinase): < 100 nM
TGI (%) Day 3 (OCI-LY-10 cells; 50 mg/kg PO BID): 35.97%
TGI (%) Day 8 (OCI-LY-10 cells; 50 mg/kg PO BID): 32.25%
TGI (%) Day 11 (OCI-LY-10 cells; 50 mg/kg PO BID): 44.47%
TGI (%) Day 3 (OCI-LY-10 cells; 100 mg/kg PO QD): 14.97%
TGI (%) Day 8 (OCI-LY-10 cells; 100 mg/kg PO QD): 19.53%
TGI (%) Day 11 (OCI-LY-10 cells; 100 mg/kg PO QD): 29.98%
difference in body weight change from control group [1, 2]: < 2%
toxicity [1, 2]: no toxicity
Average body weight of mice ([1]; Day 1): 24.8 g
Changes (%) in mice body weight in treated group over control group ([1]; Day 1): 100.0%
Average body weight of mice ([1]; Day 2): 25.3 g
Changes (%) in mice body weight in treated group over control group ([1]; Day 2): 101.1%
Average body weight of mice ([1]; Day 3): 25.7 g
Changes (%) in mice body weight in treated group over control group ([1]; Day 3): 100.8%
Average body weight of mice ([1]; Day 4): 25.9 g
Changes (%) in mice body weight in treated group over control group ([1]; Day 4): 100.6%
Average body weight of mice ([1]; Day 5): 26.3 g
Changes (%) in mice body weight in treated group over control group ([1]; Day 5): 99.8%
Average body weight of mice ([1]; Day 6): 26.5 g
Changes (%) in mice body weight in treated group over control group ([1]; Day 6): 98.5%
Average body weight of mice ([1]; Day 7): 26.9 g
Changes (%) in mice body weight in treated group over control group ([1]; Day 7): 98.9%
IC50 (ITK kinase): > 1000 nM

Structure (SMILES): NC(=O)c1c(-c2ccc(Oc3ccccc3)cc2)nn([C@@H]2CCN(C(=O)/C=C/CN3CCCCC3)C2)c1N [Example 5, (R,E)-5-amino-3-(4-phenoxyphenyl)-1-(1-(4-(piperidin-1-yl)but-2-enoyl)pyrrolidin-3-yl)-1H-pyrazole-4-carboxamide]
IC50 (Btk kinase): < 100 nM
IC50 (ITK kinase): > 1000 nM

Structure (SMILES): CC#CC(=O)N[C@H]1CC[C@@H](n2nc(-c3ccc(Oc4ccccc4)cc3)c(C(N)=O)c2N)CC1 [Example 18, 5-amino-1-((1s,4s)-4-(but-2-ynamido)cyclohexyl)-3-(4-phenoxyphenyl)-1H-pyrazole-4-carboxamide]
IC50 (Btk kinase): < 100 nM
IC50 (ITK kinase): > 1000 nM

Structure (SMILES): C=CS(=O)(=O)N1CC[C@@H](n2nc(-c3ccc(Oc4ccccc4)cc3)c(C(N)=O)c2N)C1 [Example 2, (R)-5-amino-3-(4-phenoxyphenyl)-1-(1-(vinylsulfonyl)pyrrolidin-3-yl)-1H-pyrazole-4-carboxamide]
IC50 (Btk kinase): < 100 nM
IC50 (ITK kinase): < 100 nM

Continued, in another order:

IC50 (Btk kinase): < 100 nM
IC50 (ITK kinase): > 1000 nM
Structure (SMILES): NC(=O)c1c(-c2ccc(Oc3ccccc3)cc2)nn([C@@H]2CCN(C(=O)/C=C\C(=O)O)C2)c1N [Example 11, (R,Z)-4-(3-(5-amino-4-carbamoyl-3-(4-phenoxyphenyl)-1H-pyrazol-1-yl)pyrrolidin-1-yl)-4-oxobut-2-enoic Acid]

IC50 (Btk kinase): < 100 nM
IC50 (ITK kinase): > 1000 nM
Structure (SMILES): CC(=O)OC/C=C/C(=O)N1CC[C@@H](n2nc(-c3ccc(Oc4ccccc4)cc3)c(C(N)=O)c2N)C1 [Example 13, (R,E)-4-(3-(5-amino-4-carbamoyl-3-(4-phenoxyphenyl)-1H-pyrazol-1-yl)pyrrolidin-1-yl)-4-oxobut-2-en-1-yl acetate]

IC50 (Btk kinase): < 100 nM
IC50 (ITK kinase): > 1000 nM
Structure (SMILES): NC(=O)c1c(-c2ccc(Oc3ccccc3)cc2)nn([C@@H]2CCN(C(=O)/C=C/CBr)C2)c1N [Example 12, (R,E)-5-amino-1-(1-(4-bromobut-2-enoyl)pyrrolidin-3-yl)-3-(4-phenoxyphenyl)-1H-pyrazole-4-carboxamide]

IC50 (Btk kinase): < 100 nM
IC50 (ITK kinase): > 1000 nM
Structure (SMILES): C/C=C/C(=O)N1CC[C@@H](n2nc(-c3ccc(Oc4ccccc4)cc3)c(C(N)=O)c2N)C1 [Example 7, (R,E)-5-amino-1-(1-(but-2-enoyl)pyrrolidin-3-yl)-3-(4-phenoxyphenyl)-1H-pyrazole-4-carboxamide]
TGI (%) Day 3 (OCI-LY-10 cells; 100 mg/kg PO QD): 33.27%
TGI (%) Day 8 (OCI-LY-10 cells; 100 mg/kg PO QD): 19.00%
TGI (%) Day 11 (OCI-LY-10 cells; 100 mg/kg PO QD): 11.28%

IC50 (Btk kinase): < 100 nM
IC50 (ITK kinase): < 100 nM
Structure (SMILES): C#CC(=O)N1CC[C@@H](n2nc(-c3ccc(Oc4ccccc4)cc3)c(C(N)=O)c2N)C1 [Example 17, (R)-5-amino-3-(4-phenoxyphenyl)-1-(1-propioloylpyrrolidin-3-yl)-1H-pyrazole-4-carboxamide]

IC50 (Btk kinase): < 100 nM
IC50 (ITK kinase): > 1000 nM
Structure (SMILES): NC(=O)c1c(-c2ccc(Oc3ccccc3)cc2)nn([C@@H]2CCN(C(=O)/C=C/CN3CCOCC3)C2)c1N [Example 4, (R,E)-5-amino-1-(1-(4-morpholinobut-2-enoyl)pyrrolidin-3-yl)-3-(4-phenoxyphenyl)-1H-pyrazole-4-carboxamide]

IC50 (Btk kinase): < 100 nM
IC50 (ITK kinase): > 1000 nM
Structure (SMILES): CN(C)C/C=C/C(=O)N1CC[C@@H](n2nc(-c3ccc(Oc4ccccc4)cc3)c(C(N)=O)c2N)C1 [Example 3, (R,E)-5-amino-1-(1-(4-(dimethylamino)but-2-enoyl)pyrrolidin-3-yl)-3-(4-phenoxyphenyl)-1H-pyrazole-4-carboxamide]

IC50 (Btk kinase): < 100 nM
IC50 (ITK kinase): > 1000 nM
Structure (SMILES): NC(=O)c1c(-c2ccc(Oc3ccccc3)cc2)nn([C@@H]2CCN(C(=O)/C=C/CO)C2)c1N [Example 15, (R,E)-5-amino-1-(1-(4-hydroxybut-2-enoyl)pyrrolidin-3-yl)-3-(4-phenoxyphenyl)-1H-pyrazole-4-carboxamide]

IC50 (Btk kinase): < 100 nM
IC50 (ITK kinase): > 1000 nM
Structure (SMILES): NC(=O)c1c(-c2ccc(Oc3ccccc3)cc2)nn([C@@H]2CCN(C(=O)/C=C/CN3CCCC3)C2)c1N [Example 6, (R,E)-5-amino-3-(4-phenoxyphenyl)-1-(1-(4-(pyrrolidin-1-yl)but-2-enoyl)pyrrolidin-3-yl)-1H-pyrazole-4-carboxamide]

IC50 (Btk kinase): < 100 nM
IC50 (ITK kinase): > 1000 nM
Structure (SMILES): NC(=O)c1c(-c2ccc(Oc3ccccc3)cc2)nn([C@@H]2CCN(C/C=C/C(=O)O)C2)c1N [Example 10, (R,E)-4-(3-(5-amino-4-carbamoyl-3-(4-phenoxyphenyl)-1H-pyrazol-1-yl)pyrrolidin-1-yl)but-2-enoic Acid]
